What is called IC50 is the concentration needed to halve the response being measured. High values mean weaker potency in that assay, low ones greater potency in that assay.

This experiment can be described thus: In vitro test for inhibition of [125I]CCK binding to Cholecystokinin type B receptor from guinea pig cortical membranes was determined.
With `Cc1cccc(NC(=O)NC2N=C(C3CCC3)c3ccccc3N(C)C2=O)c1` (stereo not drawn) [1-(5-Cyclobutyl-1-methyl-2-oxo-2,3-dihydro-1H-benzo[e][1,4]diazepin-3-yl)-3-m-tolyl-urea], the IC50 is 30 nM.

As to `Cc1cccc(NC(=O)NC2N=C(C3CCCC3)c3ccccc3N(C)C2=O)c1` (stereo not drawn) [1-(5-Cyclopentyl-1-methyl-2-oxo-2,3-dihydro-1H-benzo[e][1,4]diazepin-3-yl)-3-m-tolyl-urea], the IC50 turned out to be 16 nM.

In turn, `Cc1cccc(NC(=O)N[C@H]2N=C(C3CCCCC3)c3ccccc3N(C)C2=O)c1` [1-((S)-5-Cyclohexyl-1-methyl-2-oxo-2,3-dihydro-1H-benzo[e][1,4]diazepin-3-yl)-3-m-tolyl-urea] had an IC50 of 169 nM.

These data come from BindingDB's records for doi:10.1016/S0960-894X(01)80987-2 (1993).
